Experimental data taken from ChEMBL document CHEMBL5727383, “[1,2,3]triazolo[4,5-D]pyrimidine derivatives” (2019).

Biological target: Cannabinoid receptor 2 (Homo sapiens, UniProt P34972)
Assay: Radioligand Binding Assay: The affinity of the compounds of the invention for cannabinoid receptors was determined using recommended amounts of membrane preparations (PerkinElmer) of human embryonic kidney (HEK) cells expressing the human CNR1 or CNR2 receptors in conjunction with 1.5 or 2.6 nM [3H]-CP-55,940 (Perkin Elmer) as radioligand, respectively. Binding was performed in binding buffer (50 mM Tris, 5 mM MgCl2, 2.5 mM EDTA, and 0.5% (wt/vol) fatty acid free BSA, pH 7.4 for CB1 receptor and 50 mM Tris, 5 mM MgCl2, 2.5 mM EGTA, and 0.1% (wt/vol) fatty acid free BSA, pH 7.4 for CB2 receptor) in a total volume of 0.2 mL for 1 h at 30° C. shaking. The reaction was terminated by rapid filtration through microfiltration plates coated with 0.5% polyethylenimine (UniFilter GF/B filter plate; Packard). Bound radioactivity was analyzed for Ki using nonlinear regression analysis (Activity Base, ID Business Solution, Limited), with the Kd values for [3H]CP55,940 determined from saturation experiments.

Sequence of Cannabinoid receptor 2 (P34972 whole entry): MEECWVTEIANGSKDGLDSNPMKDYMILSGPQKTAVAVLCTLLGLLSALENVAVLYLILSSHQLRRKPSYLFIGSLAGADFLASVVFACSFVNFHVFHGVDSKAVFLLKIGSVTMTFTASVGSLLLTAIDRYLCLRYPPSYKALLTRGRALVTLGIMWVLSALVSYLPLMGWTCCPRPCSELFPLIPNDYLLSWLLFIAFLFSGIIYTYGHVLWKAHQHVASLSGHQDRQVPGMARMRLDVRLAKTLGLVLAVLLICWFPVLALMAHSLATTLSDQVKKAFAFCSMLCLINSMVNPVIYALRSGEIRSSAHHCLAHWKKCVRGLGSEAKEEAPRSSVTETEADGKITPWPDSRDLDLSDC

CC(C)(C)c1nc(N2CCC(F)(F)C2)c2nn(Cc3ccc(C4(C(F)(F)F)N=N4)cc3Cl)nc2n1
Ki: 2340 nM
